Measurements: patent US11739098B2 (BRISTOL-MYERS SQUIBB COMPANY, priority 2017, dated 2023)
pIC50: −log10 of the molar value.

Tests used:
Type in all cases: cell-based
human TLR8 = molecular target: T1, human TLR8 (Homo sapiens, UniProt Q9NR97); assay: TLR8 inhibition reporter assay (HEK-Blue cells, SEAP reporter, R848 stimulation); conditions: HEK-Blue cells overexpressing human TLR8, SEAP reporter, R848 15.9 μM
T1 construct: host or cells: HEK-Blue cells (HEK293-derived reporter line)
T1 sequence (Q9NR97 27-1041): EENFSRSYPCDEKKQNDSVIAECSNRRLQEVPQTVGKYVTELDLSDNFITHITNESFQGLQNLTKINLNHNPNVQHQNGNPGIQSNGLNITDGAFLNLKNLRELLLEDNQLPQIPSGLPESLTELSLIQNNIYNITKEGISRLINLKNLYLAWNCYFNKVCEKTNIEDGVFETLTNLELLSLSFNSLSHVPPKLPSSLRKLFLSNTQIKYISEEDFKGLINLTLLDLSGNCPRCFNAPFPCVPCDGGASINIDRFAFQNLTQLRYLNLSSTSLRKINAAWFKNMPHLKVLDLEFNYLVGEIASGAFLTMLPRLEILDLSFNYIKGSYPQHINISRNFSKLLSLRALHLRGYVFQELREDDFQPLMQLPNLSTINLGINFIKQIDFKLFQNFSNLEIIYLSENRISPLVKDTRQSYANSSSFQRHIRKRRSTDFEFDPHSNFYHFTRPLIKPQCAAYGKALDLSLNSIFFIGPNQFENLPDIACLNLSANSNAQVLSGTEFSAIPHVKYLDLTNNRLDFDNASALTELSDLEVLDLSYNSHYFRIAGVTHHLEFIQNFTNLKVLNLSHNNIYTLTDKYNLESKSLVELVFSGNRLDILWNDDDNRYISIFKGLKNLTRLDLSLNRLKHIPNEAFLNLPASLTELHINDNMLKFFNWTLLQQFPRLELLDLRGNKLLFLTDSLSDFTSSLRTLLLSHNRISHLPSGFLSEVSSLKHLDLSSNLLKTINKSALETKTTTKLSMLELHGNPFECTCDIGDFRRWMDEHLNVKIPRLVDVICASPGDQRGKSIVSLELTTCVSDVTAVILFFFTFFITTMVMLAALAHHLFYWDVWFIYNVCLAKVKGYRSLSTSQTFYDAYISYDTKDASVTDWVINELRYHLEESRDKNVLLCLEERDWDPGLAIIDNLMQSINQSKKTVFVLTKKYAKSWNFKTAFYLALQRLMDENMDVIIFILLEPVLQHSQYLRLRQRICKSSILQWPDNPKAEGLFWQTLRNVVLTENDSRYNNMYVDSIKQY
In short: (§1)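 Agonists (final): TLR7 gardiquimod 7.5 μM; TLR8 R848 15.9 μM; TLR9 ODN2006 5 nM. HEK-Blue reporter cells, 30 min RT compound pre-incubation, 0.05 nM–50 μM dose range, 22 h at 37 °C, colorimetric SEAP detection medium. % inhibition relative to agonist+DMSO and known-inhibitor wells.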

human TLR9 = molecular target: T2, human TLR9 (Homo sapiens, UniProt Q9NR96); assay: TLR9 inhibition reporter assay (HEK-Blue cells, SEAP reporter, ODN2006 stimulation); conditions: HEK-Blue cells overexpressing human TLR9, SEAP reporter, ODN2006 5 nM
T2 construct: host or cells: HEK-Blue cells (HEK293-derived reporter line)
T2 sequence (Q9NR96 26-1032): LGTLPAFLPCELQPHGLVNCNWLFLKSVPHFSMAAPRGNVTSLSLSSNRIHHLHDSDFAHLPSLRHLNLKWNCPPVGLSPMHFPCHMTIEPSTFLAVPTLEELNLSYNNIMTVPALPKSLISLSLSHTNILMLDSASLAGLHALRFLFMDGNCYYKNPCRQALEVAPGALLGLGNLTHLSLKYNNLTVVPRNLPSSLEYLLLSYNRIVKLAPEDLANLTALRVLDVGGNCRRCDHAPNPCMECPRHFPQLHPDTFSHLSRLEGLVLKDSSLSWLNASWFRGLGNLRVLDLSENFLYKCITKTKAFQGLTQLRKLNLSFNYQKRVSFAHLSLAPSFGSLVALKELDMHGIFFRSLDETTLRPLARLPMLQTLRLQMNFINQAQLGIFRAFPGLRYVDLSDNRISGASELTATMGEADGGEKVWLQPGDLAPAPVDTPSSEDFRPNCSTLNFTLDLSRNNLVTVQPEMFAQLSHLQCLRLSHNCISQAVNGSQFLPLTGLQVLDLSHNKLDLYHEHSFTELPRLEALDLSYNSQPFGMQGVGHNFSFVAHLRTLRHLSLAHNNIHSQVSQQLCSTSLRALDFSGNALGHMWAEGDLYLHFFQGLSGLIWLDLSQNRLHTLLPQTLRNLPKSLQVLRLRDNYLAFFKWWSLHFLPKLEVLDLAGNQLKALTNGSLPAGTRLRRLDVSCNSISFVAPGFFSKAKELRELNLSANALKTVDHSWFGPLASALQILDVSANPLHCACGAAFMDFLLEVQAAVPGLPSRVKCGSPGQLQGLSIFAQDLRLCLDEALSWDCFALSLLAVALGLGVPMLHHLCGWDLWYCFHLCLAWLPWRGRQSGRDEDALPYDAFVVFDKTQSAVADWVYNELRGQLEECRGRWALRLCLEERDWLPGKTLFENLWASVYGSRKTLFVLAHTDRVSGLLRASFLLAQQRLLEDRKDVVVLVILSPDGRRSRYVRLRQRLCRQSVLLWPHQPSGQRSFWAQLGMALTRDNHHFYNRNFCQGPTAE
In short: as §1

human TLR7 = molecular target: T3, human TLR7 (Homo sapiens, UniProt Q9NYK1); assay: TLR7 inhibition reporter assay (HEK-Blue cells, SEAP reporter, gardiquimod stimulation); conditions: HEK-Blue cells overexpressing human TLR7, SEAP reporter, gardiquimod 7.5 μM
T3 construct: host or cells: HEK-Blue cells (HEK293-derived reporter line)
T3 sequence (Q9NYK1 27-1049): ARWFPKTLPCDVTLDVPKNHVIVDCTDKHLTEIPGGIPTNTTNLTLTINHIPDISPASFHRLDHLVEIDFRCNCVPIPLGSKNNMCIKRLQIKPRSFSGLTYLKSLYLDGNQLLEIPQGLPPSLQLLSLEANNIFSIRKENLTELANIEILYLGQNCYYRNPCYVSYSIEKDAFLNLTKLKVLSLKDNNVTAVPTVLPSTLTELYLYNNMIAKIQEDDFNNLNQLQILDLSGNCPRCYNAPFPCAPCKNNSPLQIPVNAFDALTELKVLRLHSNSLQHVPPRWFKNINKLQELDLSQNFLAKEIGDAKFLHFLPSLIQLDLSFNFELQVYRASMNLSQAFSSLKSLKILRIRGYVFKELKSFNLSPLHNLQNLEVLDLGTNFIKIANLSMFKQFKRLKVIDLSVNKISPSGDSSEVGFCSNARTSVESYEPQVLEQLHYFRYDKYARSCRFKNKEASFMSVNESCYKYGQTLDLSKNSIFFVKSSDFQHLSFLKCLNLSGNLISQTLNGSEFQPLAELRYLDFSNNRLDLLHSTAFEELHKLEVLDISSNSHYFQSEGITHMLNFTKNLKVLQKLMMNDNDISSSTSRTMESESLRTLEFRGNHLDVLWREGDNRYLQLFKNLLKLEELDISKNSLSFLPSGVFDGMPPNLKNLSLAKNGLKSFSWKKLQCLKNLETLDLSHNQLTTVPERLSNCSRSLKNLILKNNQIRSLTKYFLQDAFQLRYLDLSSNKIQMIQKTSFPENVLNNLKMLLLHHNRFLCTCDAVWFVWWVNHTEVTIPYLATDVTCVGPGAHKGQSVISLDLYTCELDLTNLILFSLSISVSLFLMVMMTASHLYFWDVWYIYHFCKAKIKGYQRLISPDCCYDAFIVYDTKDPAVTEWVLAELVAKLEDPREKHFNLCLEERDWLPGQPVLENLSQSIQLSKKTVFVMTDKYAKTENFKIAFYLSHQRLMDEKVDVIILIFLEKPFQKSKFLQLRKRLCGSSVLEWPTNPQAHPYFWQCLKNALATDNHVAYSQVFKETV
In short: as §1

Row | Structure (SMILES) | pIC50 (human TLR8) | pIC50 (human TLR9) | pIC50 (human TLR7)
1 | Cc1nc[nH]c1CN1CCC(c2ccc3[nH]c(-c4ccnc5[nH]nc(C)c45)c(C(C)C)c3c2)CC1 [Example 874, 4-(3-isopropyl-5-(1-((4-methyl-1H-imidazol-5-yl)methyl)piperidin-4-yl)-1H-indol-2-yl)-3-methyl-1H-pyrazolo[3,4-b]pyridine] | > 7.00 | 6.00 to 7.00 | > 7.00
2 | CCc1c(-c2cc3cn(C)nc3cn2)[nH]c2ccc(C3CCNCC3)cc12 [Example 98, 5-(3-ethyl-5-(piperidin-4-yl)-1H-indol-2-yl)-2-methyl-2H-pyrazolo[3,4-c]pyridine] | 6.00 to 7.00 | 4.30 to 6.00 | 4.30 to 6.00
3 | CC(C)c1c(-c2cn3ccnc3cc2Cl)[nH]c2ccc(C3CCNCC3)cc12 [Example 128, 7-chloro-6-(3-isopropyl-5-(piperidin-4-yl)-1H-indol-2-yl)imidazo[1,2-a]pyridine] | > 7.00 | 4.30 to 6.00 | > 7.00
4 | CC(C)c1c(-c2ccnc3[nH]ncc23)[nH]c2ccc(C3CCN(C(=O)Cn4ccnc4)CC3)cc12 [Example 565, 2-(1H-imidazol-1-yl)-1-(4-(3-isopropyl-2-(1H-pyrazolo[3,4-b]pyridin-4-yl)-1H-indol-5-yl)piperidin-1-yl)ethan-1-one] | > 7.00 | 4.30 to 6.00 | > 7.00
5 | COc1cc(-c2[nH]c3ccc(C4CCNCC4)cc3c2C(C)C)c2ccccc2n1 [Example 105, 4-(3-isopropyl-5-(piperidin-4-yl)-1H-indol-2-yl)-2-methoxyquinoline] | 6.00 to 7.00 | 4.30 to 6.00 | > 7.00
6 | CCc1c(-c2ccnc3cnn(C)c23)[nH]c2ccc(C3CCNCC3)cc12 [Example 41, 7-(3-ethyl-5-(piperidin-4-yl)-1H-indol-2-yl)-1-methyl-1H-pyrazolo[4,3-b]pyridine] | 6.00 to 7.00 | 4.30 to 6.00 | 6.00 to 7.00
7 | Cc1nc[nH]c1CN1CCC(c2ccc3[nH]c(-c4ccnc5[nH]ncc45)c(C(C)C)c3c2)CC1 [Example 864, 4-(3-isopropyl-5-(1-((4-methyl-1H-imidazol-5-yl)methyl)piperidin-4-yl)-1H-indol-2-yl)-1H-pyrazolo[3,4-b]pyridine] | > 7.00 | 6.00 to 7.00 | > 7.00
8 | CC(C)c1c(-c2ccnc3[nH]ncc23)[nH]c2ccc(C3CCN(C4C[C@H]5CC[C@@H](C4)N5C)CC3)cc12 (stereo partly drawn) [Example 829, 4-(3-isopropyl-5-(1-((1R,5S)-8-methyl-8-azabicyclo[3.2.1]octan-3-yl)piperidin-4-yl)-1H-indol-2-yl)-1H-pyrazolo[3,4-b]pyridine] | > 7.00 | 6.00 to 7.00 | > 7.00
9 | CCc1c(-c2ccn3cnnc3c2)[nH]c2ccc(C3CCNCC3)cc12 [Example 204, 7-(3-ethyl-5-(piperidin-4-yl)-1H-indol-2-yl)-[1,2,4]triazolo[4,3-a]pyridine] | 6.00 to 7.00 | 6.00 to 7.00 | 6.00 to 7.00
10 | CC(C)c1c(-c2nc3cnccn3n2)[nH]c2ccc(C3CCNCC3)cc12 [Example 195, 2-(3-isopropyl-5-(piperidin-4-yl)-1H-indol-2-yl)-[1,2,4]triazolo[1,5-a]pyrazine] | > 7.00 | 4.30 to 6.00 | 4.30 to 6.00

More lines, now with the values ahead:

Row | pIC50 (human TLR8) | pIC50 (human TLR9) | pIC50 (human TLR7) | Structure (SMILES)
11 | 6.00 to 7.00 | 4.30 to 6.00 | > 7.00 | CC(C)c1c(-c2ccn3nnnc3c2)[nH]c2ccc(C3CCN(CC(=O)N(C)C)CC3)cc12 [Example 304, 2-(4-(3-isopropyl-2-(tetrazolo[1,5-a]pyridin-7-yl)-1H-indol-5-yl)piperidin-1-yl)-N,N-dimethylacetamide]
12 | > 7.00 | 6.00 to 7.00 | > 7.00 | CC(CN(C)C)CN1CCC(c2ccc3[nH]c(-c4ccnc5[nH]ncc45)c(C(C)C)c3c2)CC1 (stereo not drawn) [Example 846, 3-(4-(3-isopropyl-2-(1H-pyrazolo[3,4-b]pyridin-4-yl)-1H-indol-5-yl)piperidin-1-yl)-N,N,2-trimethylpropan-1-amine]
13 | 6.00 to 7.00 | 4.30 to 6.00 | 6.00 to 7.00 | Cc1cc(-c2[nH]c3ccc(C4CCN(CC(=O)N(C)C)CC4)cc3c2C(C)C)cn2nncc12 [Example 307, 2-(4-(3-isopropyl-2-(4-methyl-[1,2,3]triazolo [1,5-a]pyridin-6-yl)-1H-indol-5-yl)piperidin-1-yl)-N,N-dimethylacetamide]
14 | > 7.00 | 4.30 to 6.00 | > 7.00 | CC(C)c1c(-c2cn(C)c3ncccc23)[nH]c2ccc(C3CCN(CC(N)=O)CC3)cc12 [Example 296, 2-(4-(3-isopropyl-2-(1-methyl-1H-pyrrolo [2,3-b]pyridin-3-yl)-1H-indol-5-yl)piperidin-1-yl)acetamide]
15 | 6.00 to 7.00 | 4.30 to 6.00 | 6.00 to 7.00 | CC(C)c1c(-c2cccn3ncnc23)[nH]c2ccc(C3CCN(CC(=O)N(C)C)CC3)cc12 [Example 362, 2-(4-(2-5 ([1,2,4]triazolo[1,5-a]pyridin-8-yl)-3-isopropyl-1H-indol-5-yl)piperidin-1-yl)-N,N-dimethylacetamide]
